Data as given in ChEMBL document CHEMBL1177848, “Synthesis of novel 6,6a,7,8-tetrahydro-5H-naphtho[1,2-e]pyrimido[4,5-b][1,4]diazepines under microwave irradiation as potential anti-tumor agents” (2010).
Active and inactive are the calls of the source. The calls are words filed in the database; no cut-off is given here.

Legend:
[1] = test system: COLO 205; test: Growth inhibition of human COLO205 cells after 48 hrs by sulforhodamine B assay; type: functional; details: COLO 205, 48 h
[2] = test system: HL-60; test: Growth inhibition of human HL-60(TB) cells at 1 uM after 48 hrs by sulforhodamine B assay; type: functional, cell-based
[3] = test system: U-251; test: Growth inhibition of human U251 cells after 48 hrs by sulforhodamine B assay; type: functional; details: U-251, 48 h
[4] = test system: 786-0; test: Growth inhibition of human 786-0 cells at 1 uM after 48 hrs by sulforhodamine B assay; type: functional, cell-based
[5] = test system: HCT-15; test: Growth inhibition of human HCT15 cells at 1 uM after 48 hrs by sulforhodamine B assay; type: functional, cell-based
[6] = test system: RPMI-8226; test: Growth inhibition of human RPMI8226 cells after 48 hrs by sulforhodamine B assay; type: functional; details: RPMI-8226, 48 h
[7] = test system: HCT-116; test: Growth inhibition of human HCT116 cells after 48 hrs by sulforhodamine B assay; type: functional; details: HCT-116, 48 h
[8] = test system: MCF7; test: Growth inhibition of human MCF7 cells after 48 hrs by sulforhodamine B assay; type: functional; details: MCF7, 48 h
[9] = test system: UACC-62; test: Growth inhibition of human UACC62 cells at 1 uM after 48 hrs by sulforhodamine B assay; type: functional, cell-based
[10] = test system: UACC-257; test: Growth inhibition of human UACC257 cells at 1 uM after 48 hrs by sulforhodamine B assay; type: functional, cell-based
[11] = test system: SK-MEL-2; test: Growth inhibition of human SK-MEL-2 cells at 1 uM after 48 hrs by sulforhodamine B assay; type: functional, cell-based
[12] = test system: UO-31; test: Growth inhibition of human UO31 cells after 48 hrs by sulforhodamine B assay; type: functional; details: UO-31, 48 h
[13] = test system: HOP-62; test: Growth inhibition of human HOP62 cells at 1 uM after 48 hrs by sulforhodamine B assay; type: functional, cell-based
[14] = test system: ACHN; test: Growth inhibition of human ACHN cells after 48 hrs by sulforhodamine B assay; type: functional
[15] = test system: MOLT-4; test: Growth inhibition of human MOLT4 cells at 1 uM after 48 hrs by sulforhodamine B assay; type: functional, cell-based
[16] = test system: OVCAR-4; test: Growth inhibition of human OVCAR4 cells at 1 uM after 48 hrs by sulforhodamine B assay; type: functional, cell-based
[17] = test system: IGROV-1; test: Growth inhibition of human IGROV1 cells at 1 uM after 48 hrs by sulforhodamine B assay; type: functional, cell-based
[18] = test system: UO-31; test: Growth inhibition of human UO31 cells at 1 uM after 48 hrs by sulforhodamine B assay; type: functional, cell-based
[19] = test system: Malme-3M; test: Growth inhibition of human MALME-3M cells at 1 uM after 48 hrs by sulforhodamine B assay; type: functional, cell-based
[20] = test system: SK-MEL-28; test: Growth inhibition of human SK-MEL-28 cells at 1 uM after 48 hrs by sulforhodamine B assay; type: functional, cell-based
[21] = test system: NCI/ADR-RES; test: Growth inhibition of human NCI/ADR-RES cells at 1 uM after 48 hrs by sulforhodamine B assay; type: functional, cell-based
[22] = test system: PC-3; test: Growth inhibition of human PC3 cells after 48 hrs by sulforhodamine B assay; type: functional; details: PC-3, 48 h
[23] = test system: CCRF-CEM; test: Growth inhibition of human CCRF-CEM cells at 1 uM after 48 hrs by sulforhodamine B assay; type: functional, cell-based
[24] = test system: SF-295; test: Growth inhibition of human SF295 cells at 1 uM after 48 hrs by sulforhodamine B assay; type: functional, cell-based
[25] = test system: BT-549; test: Growth inhibition of human BT549 cells at 1 uM after 48 hrs by sulforhodamine B assay; type: functional, cell-based
[26] = test system: NCI-H226; test: Growth inhibition of human NCI-H226 cells after 48 hrs by sulforhodamine B assay; type: functional; details: NCI-H226, 48 h
[27] = test system: SF-539; test: Growth inhibition of human SF539 cells at 1 uM after 48 hrs by sulforhodamine B assay; type: functional, cell-based
[28] = test system: KM12; test: Growth inhibition of human KM12 cells after 48 hrs by sulforhodamine B assay; type: functional; details: KM12, 48 h
[29] = test system: SR; test: Growth inhibition of human SR cells after 48 hrs by sulforhodamine B assay; type: functional
[30] = test system: MDA-MB-435; test: Growth inhibition of human MDA-MB-435 cells at 1 uM after 48 hrs by sulforhodamine B assay; type: functional, cell-based
[31] = test system: HOP-92; test: Growth inhibition of human HOP92 cells after 48 hrs by sulforhodamine B assay; type: functional; details: HOP-92, 48 h
[32] = test system: M14; test: Growth inhibition of human M14 cells at 1 uM after 48 hrs by sulforhodamine B assay; type: functional, cell-based
[33] = test system: NCI-H460; test: Growth inhibition of human NCI-H460 cells after 48 hrs by sulforhodamine B assay; type: functional; details: NCI-H460, 48 h
[34] = test system: NCI-H226; test: Growth inhibition of human NCI-H226 cells at 1 uM after 48 hrs by sulforhodamine B assay; type: functional, cell-based
[35] = test system: OVCAR-8; test: Growth inhibition of human OVCAR8 cells at 1 uM after 48 hrs by sulforhodamine B assay; type: functional, cell-based
[36] = test system: NCI-H460; test: Growth inhibition of human NCI-H460 cells at 1 uM after 48 hrs by sulforhodamine B assay; type: functional, cell-based
[37] = test system: HCT-116; test: Growth inhibition of human HCT116 cells at 1 uM after 48 hrs by sulforhodamine B assay; type: functional, cell-based
[38] = test system: TK-10; test: Growth inhibition of human TK10 cells after 48 hrs by sulforhodamine B assay; type: functional; details: TK-10, 48 h
[39] = test system: NCI-H322M; test: Growth inhibition of human […] cells at 1 uM after 48 hrs by sulforhodamine B assay; type: functional, cell-based
[40] = test system: SW-620; test: Growth inhibition of human SW620 cells after 48 hrs by sulforhodamine B assay; type: functional; details: SW-620, 48 h
[41] = test system: SF530; test: Growth inhibition of human SF530 cells at 1 uM after 48 hrs by sulforhodamine B assay; type: functional, cell-based
[42] = test system: ACHN; test: Growth inhibition of human ACHN cells at 1 uM after 48 hrs by sulforhodamine B assay; type: functional, cell-based
[43] = test system: MCF7; test: Growth inhibition of human MCF7 cells at 1 uM after 48 hrs by sulforhodamine B assay; type: functional, cell-based
[44] = test system: HCT-15; test: Growth inhibition of human HCT15 cells after 48 hrs by sulforhodamine B assay; type: functional; details: HCT-15, 48 h
[45] = test system: BT-549; test: Growth inhibition of human BT549 cells after 48 hrs by sulforhodamine B assay; type: functional; details: BT-549, 48 h; for CC50: read-out: LC50 (the source's name)
[46] = test system: T47D; test: Growth inhibition of human T47D cells at 1 uM after 48 hrs by sulforhodamine B assay; type: functional, cell-based
[47] = test system: EKVX; test: Growth inhibition of human EKVX cells after 48 hrs by sulforhodamine B assay; type: functional

Compound: Nc1nc(N)c2c(n1)NC(c1ccc(Cl)cc1)C1CCc3ccccc3C1=N2 (stereo not given)
- GI50 [1]: 2.78 µM
- LC50 (50% lethal concentration) [1]: 30.1 µM
- growth inhibition (GI) [2]: inactive
- GI50 [3]: 3.81 µM
- LC50 [3]: 43.9 µM
- growth inhibition (GI) [4]: inactive
- growth inhibition (GI) [5]: inactive
- GI50 [6]: 2.75 µM
- LC50 [6]: 57.9 µM
- GI50 [7]: 3.72 µM
- LC50 [7]: 38.6 µM
- GI50 [8]: 2.41 µM
- LC50 [8]: 33.7 µM
- growth inhibition (GI) [9]: inactive
- growth inhibition (GI) [10]: inactive
- growth inhibition (GI) [11]: inactive
- GI50 [12]: 3.63 µM
- LC50 [12]: 46.2 µM
- growth inhibition (GI) [13]: inactive
- GI50 [14]: 4.72 µM
- LC50 (50% lethal concentration) [14]: 44.2 µM
- growth inhibition (GI) [15]: inactive
- growth inhibition (GI) [16]: inactive
- growth inhibition (GI) [17]: inactive
- growth inhibition (GI) [18]: inactive
- growth inhibition (GI) [19]: inactive
- growth inhibition (GI) [20]: inactive
- growth inhibition (GI) [21]: inactive
- GI50 [22]: 2.86 µM
- LC50 [22]: 48.9 µM
- growth inhibition (GI) [23]: inactive
- growth inhibition (GI) [24]: inactive
- growth inhibition (GI) [25]: inactive
- GI50 [26]: 8.58 µM
- LC50 [26]: 80.6 µM
- growth inhibition (GI) [27]: inactive
- GI50 [28]: 8.48 µM
- LC50 (concentration killing 50% of cells) [28]: 45.6 µM
- GI50 [29]: 1.73 µM
- LC50 [29]: 36.3 µM
- growth inhibition (GI) [30]: inactive
- GI50 [31]: 2.26 µM
- LC50 (50% lethal concentration) [31]: 31.9 µM
- growth inhibition (GI) [32]: inactive
- GI50 [33]: 3.77 µM
- LC50 [33]: 39.1 µM
- growth inhibition (GI) [34]: inactive
- growth inhibition (GI) [35]: inactive
- growth inhibition (GI) [36]: inactive
- growth inhibition (GI) [37]: inactive
- GI50 [38]: 8.2 µM
- LC50 (50% lethal concentration) [38]: 58 µM
- growth inhibition (GI) [39]: inactive
- GI50 [40]: 8.23 µM
- LC50 [40]: 54.9 µM
- growth inhibition (GI) [41]: inactive
- growth inhibition (GI) [42]: inactive
- growth inhibition (GI) [43]: inactive
- GI50 [44]: 4.16 µM
- LC50 [44]: 53.9 µM
- GI50 [45]: 9.01 µM
- CC50 [45]: 52.6 µM
- growth inhibition (GI) [46]: inactive
- GI50 [47]: 3.62 µM
- LC50 [47]: 96.5 µM

Compound: Nc1nc(N)c2c(n1)NC(c1ccccc1)C1CCc3ccccc3C1=N2 (stereo not given)
- GI50 [1]: 3.07 µM
- LC50 (50% lethal concentration) [1]: 38.7 µM
- growth inhibition (GI) [2]: inactive
- GI50 [3]: 4.65 µM
- LC50 [3]: 44 µM
- growth inhibition (GI) [4]: inactive
- growth inhibition (GI) [5]: inactive
- GI50 [6]: 3.21 µM
- LC50 [6]: > 100 µM
- GI50 [7]: 2.97 µM
- LC50 [7]: 38 µM
- GI50 [8]: 3.25 µM
- LC50 [8]: 46.7 µM
- growth inhibition (GI) [9]: inactive
- growth inhibition (GI) [10]: inactive
- growth inhibition (GI) [11]: inactive
- GI50 [12]: 2.5 µM
- LC50 [12]: 45 µM
- growth inhibition (GI) [13]: inactive
- GI50 [14]: 4.38 µM
- LC50 (50% lethal concentration) [14]: 41.9 µM
- growth inhibition (GI) [15]: inactive
- growth inhibition (GI) [16]: inactive
- growth inhibition (GI) [17]: inactive
- growth inhibition (GI) [18]: inactive
- growth inhibition (GI) [19]: inactive
- growth inhibition (GI) [20]: inactive
- growth inhibition (GI) [21]: inactive
- GI50 [22]: 2.82 µM
- LC50 [22]: > 100 µM
- growth inhibition (GI) [23]: inactive
- growth inhibition (GI) [24]: inactive
- growth inhibition (GI) [25]: inactive
- GI50 [26]: 5.96 µM
- LC50 [26]: > 100 µM
- growth inhibition (GI) [27]: inactive
- GI50 [28]: 4.07 µM
- LC50 (concentration killing 50% of cells) [28]: 39.7 µM
- GI50 [29]: 4.52 µM
- LC50 [29]: > 100 µM
- growth inhibition (GI) [30]: inactive
- GI50 [31]: 2.55 µM
- LC50 (50% lethal concentration) [31]: 40.6 µM
- growth inhibition (GI) [32]: inactive
- GI50 [33]: 3.81 µM
- LC50 [33]: 44.2 µM
- growth inhibition (GI) [34]: inactive
- growth inhibition (GI) [35]: inactive
- growth inhibition (GI) [36]: inactive
- growth inhibition (GI) [37]: inactive
- GI50 [38]: 3.01 µM
- LC50 (50% lethal concentration) [38]: 43.6 µM
- growth inhibition (GI) [39]: inactive
- GI50 [40]: 6.3 µM
- LC50 [40]: 53.3 µM
- growth inhibition (GI) [41]: inactive
- growth inhibition (GI) [42]: inactive
- growth inhibition (GI) [43]: inactive
- GI50 [44]: 4.06 µM
- LC50 [44]: 48.8 µM
- GI50 [45]: 5.42 µM
- CC50 [45]: 47.9 µM
- growth inhibition (GI) [46]: inactive
- GI50 [47]: 2.68 µM
- LC50 [47]: 78.3 µM
